Laboratory results as given in patent US20160214926A1, “DIPHENYLOXYALKYLAMINE DERIVATIVES AND ARYLOXYALKYLAMINE DERIVATIVES, PHARMACEUTICAL COMPOSITION, USE OF SAID PHARMACEUTICAL COMPOSITION FOR TREATING, PREVENTING OR INHIBITING CHRONIC PULMONARY INFLAMMATORY DISEASES AND METHOD FOR TREATING OR PREVENTING SUCH DISEASES” (FUNDACAO OSWALDO CRUZ, priority 2013, published 2016).

Legend:
[1] = system: tracheal rings; experiment: Anaphylactic (ovalbumin-induced) contraction of tracheal rings from sensitized rats; parameters: species or system Wistar rats; conditions: compound 30 μM
Description: In this study, Wistar rats of both sexes were used, weighing between 200 and 250 g, coming from the Laboratory Animal Breeding Center of Fundacdo Oswaldo Cruz. As described previously (da Costa et al., 2007), the animals were sensitized by injection into the dorsal subcutaneous tissue with mixture containing 50 μg of ovalbumin and 5 mg of aluminum hydroxide on days 0 and 7. On the 14th day after the first sensitization, the animals were sacrificed for the removal of the trachea. After a stabilization period of 30 minutes, the tracheal rings were contracted initially with carbachol (2.5 μM) for testing the feasibility and reproducibility of the responses of the preparation.
The tracheal rings were exposed to increasing concentrations of JME-173 (3-30 μM), or carrier (0.9% NaCl) for 30 minutes before the triggering of the contractile response triggered by ovalbumin (100 μg/ml). Salmeterol (30 μM) was used as reference treatment. The responses were expressed as mean±Standard Error of the Mean of at least 5 tracheal segments. All results were expressed as percentage of the contraction produced by 2.5 μM of carbachol.

[2] = system: A/J mice; experiment: LPS-induced lung inflammation and airway hyperreactivity; format: in vivo
Description: Male A/J mice (18-20 g), coming from the Laboratory Animal Breeding Center of Oswaldo Cruz Foundation, were used in the experiments. The mice were anesthetized with halothane aerosol ([…], SP, Brazil) to receive intranasal administration of LPS (25 μg/25 μl 0.9% NaCl, instillation) or 0.9% NaCl (25 μl) (negative control). […] Obtaining of bronchoalveolar lavage, as well as the total and differential leukocyte counts carried out in this effluent, were made as previously described (Kummerle et al., 2012). Thus, after 18 hrs of LPS instillation, the mice were sacrificed by terminal anesthesia with thiopental (500 mg/kg). Then, they had the trachea dissected and cannulated. Bronchoalveolar lavage (BAL) was performed by 3 consecutive lavages of 800 μl of PBS containing EDTA (10 mM). The lavages were then subjected to centrifugation (1500 rpm-10 minutes) and the cell “pellet” resuspended in the volume of 0.5 ml of PBS/EDTA solution 10 mM. The total leukocyte count from the lavage was performed in a Neubauer chamber by light microscopy (100× magnification), diluting an aliquot of the cell suspension from the lavage in TPrk liquid (1:40). The differential counting was performed on cytocentrifuged, which were stained with May-Grunwald-Giemsa and assessed using oil immersion objective (1000× magnification) (Kummerle et al., 2012). The airway hyperreactivity was also assessed 18 hours after LPS, by exposing the animals to increasing concentrations of aerosolized methacholine (3-27 mg/ml) in FinePoint R/C Buxco® system (Buxco Electronics, Sharon, Conn., USA). The mice were anesthetized with Nembutal (60 mg/kg, i.p.) for the tracheostomy procedure and connection of the animal to mechanical ventilation and pneumotachograph of the FinePoint platform. The neuromuscular activity was blocked with pancuronium bromide (1 mg/kg, i.v.) to enable the pulmonary resistance records (cm H20/mL/s) and elastance (cm H20/mL) in each respiratory cycle, as previously reported (Olsen et al., 2011).

[3] = system: A/J mice; experiment: Methacholine-induced bronchospasm (Penh), whole-body plethysmography; format: in vivo; conditions: for blocking of methacholine-induced increase of Penh (cholinergic bronchospasm): 30 and 100 mg/kg orally
Description: A/J mice of both sexes were used, weighing between 18 and 20 g, coming from the Laboratory Animal Breeding Center of Oswaldo Cruz Foundation. Using barometric whole-body plethysmography (Buxco Research System, Wilmington, N.C.), bronchospasm responses caused by subsequent inhalations of methacholine (12, 25 and 50 mg/ml for 2.5 minutes, 5-minute intervals) were measured in standard A/J mice, awake, not immobilized, as previously reported (Coelho et al., 2008; Hamelmann et al., 1997). Penh measures in response to methacholine challenge were performed 1 hour and 3 hours after treatment with JME-207 and JME-209 (30 and 100 mg/kg) administered orally (gavage).

[4] = system: mast cells of the RBL-2H3 line; experiment: Antigen-induced degranulation of sensitized mast cells (beta-hexosaminidase release); format: cell-based; conditions: Rattus norvegicus; for IC50: RBL-2H3, 1 h, RBL-2H3, DNP-BSA 10 ng/ml, 60 minutes treatment, read-out: IC50 blocking of anaphylactic mast cell degranulation; for Emax: RBL-2H3, DNP-BSA, read-out: EMAX blocking of anaphylactic mast cell degranulation
Description: For this study, mast cells of the RBL-2H3 line were used, as previously reported (Beaven et al., 1987). […] The cells were then dissociated from the plate using trypsin, centrifuged at 1000 rpm for 5 minutes and distributed in 48-well plates at a density of 125,000 cells per well. The cells were sensitized with monoclonal DNP-specific […] (1 μg/mL) diluted in the same medium used for the cultivation and maintained in the oven for 20 hours. After this period, the cells were washed with Tyrode-gelatin and subjected to treatment with increasing concentrations of […]-209 or mexiletine for 60 minutes. Then, incubation was performed with DNP-BSA (10 ng/ml) for a further period of 60 minutes. After this period, 10 μL of supernatant were collected from each well and added to a 96-well plate. The cells were lysed with 200 μL of 0.1% Triton X-100 and 10 μL of the lysate of each plate were added to the 96-well plate. Then, 40 μL of substrate for the β-hexosaminidase enzyme were added to the samples. After 40 minutes of reaction, reaction stopping solution (0.2 M glycine) was added, generating a colorimetric response, which was measured by spectrophotometer (λ=405 nm).

[5] = system: A/J mice; experiment: Acute airway inflammation induced by cigarette smoke; format: in vivo; conditions: JME-209 30 and 100 mg/kg
Description: Male A/J mice (18-20 g), coming from the Laboratory Animal Breeding Center of Oswaldo Cruz Foundation, were used in the experiments. The animals were placed in a chamber and subjected to an atmosphere enriched with 100 ml of smoke from 4 filter cigarettes (trade mark) for 1 minute on four consecutive days. Control animals were exposed to the condition in which cigarette smoke was replaced by equal volume of ambient air (Castro et al., 2009).
[…] The compounds were dissolved in 0.9% NaCl just prior to administration.
Obtaining of bronchoalveolar lavage, as well as the total and differential leukocyte counts carried out in this effluent, were made as previously described (Olsen et al., 2011). Thus, after 24 hrs of the last exposure to cigarette smoke, the mice were sacrificed by terminal anesthesia with thiopental (500 mg/kg). Then, they had the trachea dissected and cannulated BAL was performed by 3 consecutive lavages of 800 μl of PBS containing EDTA (10 mM). The lavages were then subjected to centrifugation (1500 rpm-10 minutes) and the cell “pellet” resuspended in the volume of 0.5 ml of PBS/EDTA solution 10 mM. The total leukocyte count from the lavage was performed in a Neubauer chamber by light microscopy (100× magnification), diluting an aliquot of the cell suspension from the lavage in TPrk liquid (1:40). The differential counting was performed on cytocentrifuged, which were stained with May-Grunwald-Giemsa and assessed using oil immersion objective (1000× magnification).

[6] = system: rat tracheas pre-contracted with carbachol; experiment: Relaxation of rat trachea pre-contracted with carbachol
Description: To assess the potential relaxing effect of the respiratory smooth muscle, rat tracheas were obtained and maintained in an isolated organ bath, as previously described (Coelho et al., 2008). The tracheal segments were then pre-contracted with carbachol at the concentration of 2.5 μM and subjected to increasing concentrations of the tested compounds. All results were expressed as percentage of the contraction produced by carbachol (Coelho et al., 2008).

[7] = system: rat tracheal rings; experiment: Inhibition of carbachol-induced contraction of rat tracheal rings (pretreatment); conditions: Rattus norvegicus
Excerpt: In this study, Wistar rats of both sexes were used, weighing between 200 and 250 g, coming from the Laboratory Animal Breeding Center of Fundacdo Oswaldo Cruz. As previously described (Coelho et al., 2008), the animals were sacrificed by exposure to air atmosphere enriched with CO2, Then, the anterior cervical region was opened so that the trachea could be located and removed. It was then transferred to a Petri dish containing Krebs solution with the following composition (mM): NaCl (118), KCl (4.8), CaCl2 (2.5), MgSO4 (1.2), KH2PO4 (1.2), NaHCO3 (24), and glucose (11). The total segment was divided into fragments of about 3 to 4 rings, which were kept in another Petri dish containing Krebs solution. Each fragment was mounted vertically on a 10 ml cuvette with Krebs solution maintained at 37° C. and aerated with carbogen mixture (95% O2 and 5% CO2). The lower rod is fixed to the cuvette base and the top portion was attached to the isometric transducer for measuring the voltage variation of the fragment. The transducer was connected to a device which transforms the voltage variation in digital record. The fragments were subjected to a basal voltage of 1 g and were calibrated, so that the subsequent contractions could be expressed as a percentage of this 1 g voltage. The solutions were introduced inside the cuvettes with the aid of an automatic pipette. The end of the tip was always placed at the same height and position, without touching the muscle. The tracheal rings were initially contracted with 2.5 μM of carbachol. When the contractions reached the plateau, each segment was washed until the total relaxation of the smooth muscle. […] All results were expressed as percentage of the contraction produced by 2.5 μM of carbachol (Coelho et al., 2008).

[8] = system: A/J mice; experiment: Ovalbumin asthma model: airway hyperreactivity, leukocyte infiltration, cytokines (nebulization); format: in vivo; conditions: for IL-5 generation in lung tissue / IL-13 generation in lung tissue / eotaxin-2 generation in lung tissue / increased production of eotaxin-1: nebulization 2%; for airway hyperreactivity (lung resistance and elastance after methacholine): nebulization 2% for 30 minutes, OVA sensitized and challenged
Description: Male A/J mice (18-20 g), coming from the Laboratory Animal Breeding Center of Oswaldo Cruz Foundation, were used in the experiments. The animals were previously sensitized with a mixture of ovalbumin (OVA) (50 μg) (Grade V; Sigma, St. Louis, Mo., USA) and aluminum hydroxide (5 mg) administered subcutaneously on day 0 with boost on day 14 (equal suspension administered intraperitoneally). Nasal instillations of OVA (25 μg/25 μl in sterile 0.9% NaCl) were administered on days 14, 21, 28 and 35, with the hyperresponsiveness analysis performed 24 hours after the last challenge. […] That is, the treatments took place after the installation of asthma framework, reflecting a therapeutic action of the respective compounds analyzed.
The effect of the treatments on bronchial hyperreactivity was investigated by measuring the resistance changes and pulmonary elastance, using invasive barometric plethysmography whole-body system (Buxco, USA), as previously described (Olsen et al., 2012).

[9] = 30 and 100 mg/kg orally 1 hour before LPS

## OCc1cc(C(O)CNCCCCCCOCCCCc2ccccc2)ccc1O (centres unmarked) [salmeterol, reference compound]
[1]
  blocking of anaphylactic contraction: 52%

## CC(N)COc1ccc(-c2ccccc2)cc1.Cl (centres unmarked) [JME-209]
[2]; [9]
  increase in the number of mononuclear cells in bronchoalveolar lavage: without significantly altering
  levels of eosinophils in bronchoalveolar lavage: reducing
  levels of neutrophils in bronchoalveolar lavage: reducing
[2]; 30 and 100 mg/kg orally 1 hour before LPS, 18 hours after challenge
  leukocyte infiltration in bronchoalveolar space: inhibited
[2]; oral treatment 1 hour before LPS, 18 hours after LPS
  airway hyperreactivity (lung resistance and elastance): inhibited
[3]; 100 mg/kg orally
  action time: at least 3 hours
[3]; 1 hour after treatment
  blocking of methacholine-induced increase of Penh (cholinergic bronchospasm): slight blocking
[3]; 3 hours after treatment
  blocking of methacholine-induced increase of Penh (cholinergic bronchospasm): active only at the highest dose
[4]
  IC50: 28.6 µM
  Emax: 100%
[5]; dexamethasone 1 mg/kg, orally
  eosinophils in bronchoalveolar effluent: blocked
  mononuclear cells in bronchoalveolar effluent: blocked
  neutrophils in bronchoalveolar effluent: blocked
[5]; dexamethasone 3 mg/kg, orally 1 hr before smoke
  accumulation of total leukocytes in bronchoalveolar space: significantly inhibited

## Cc1cc(I)ccc1OCC(C)N.Cl (centres unmarked) [JME-207]
[6]; Rattus norvegicus, trachea pre-contracted with carbachol 2.5 μM, mean±SEM
  EC50: 1000 µM
[6]; pre-contracted trachea
  times more potent as relaxation inducers than mexiletine: 146 times
[6]; trachea pre-contracted with carbachol 2.5 μM, mean±SEM
  maximum relaxation effect: 111%
[3]; 3 hours after treatment
  blocking of methacholine-induced increase of Penh (cholinergic bronchospasm): significantly inhibited
[7]; carbachol 10 μM, pretreated 10 minutes
  IC50: 40.9 µM
[7]; carbachol 10 μM, pretreated 10 minutes, mean ± SEM, read-out: EMAX maximum effect of inhibition of carbachol-induced contraction
  Emax: 92.9 ± 4.3%
[7]; compound 100 μM, pre-treatment 10 minutes, read-out: inhibition of the muscarinic contraction
  inhibition at 100 µM: ~93%
[4]
  IC50: 2.3 µM
  Emax: 94%
[8]
  IL-5 generation in lung tissue: equally sensitive
  IL-13 generation in lung tissue: equally sensitive
  eotaxin-2 generation in lung tissue: only the latter inhibited
  increased production of eotaxin-1: failed to modify
  airway hyperreactivity (lung resistance and elastance after methacholine): abolished

## CC(N)COc1cccc(I)c1.Cl (centres unmarked) [JME-141]
[8]
  airway hyperreactivity (lung resistance and elastance after methacholine): abolished

## CC(N)COc1ccc(F)c(Cl)c1.Cl (centres unmarked) [JME-188]
[8]
  IL-5 generation in lung tissue: equally sensitive
  IL-13 generation in lung tissue: equally sensitive
  eotaxin-2 generation in lung tissue: inhibited
  increased production of eotaxin-1: failed to modify
  airway hyperreactivity (lung resistance and elastance after methacholine): abolished
